Source: PubChem BioAssay (NCI)
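Tested at 5 concentrations; 48 h exposure; 96-well plates; endpoints linearly interpolated, else capped at highest concentration. Definition used: TGI = concentration required for complete inhibition of growth.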

How the values were obtained:
Experiment in all cases: inhibition of tumour cell growth, NCI panel, 48 h
MDA-MB-231 breast = system: MDA-MB-231 breast
UACC-257 melanoma = system: UACC-257 melanoma
KM12 colon = system: KM12 colon
NCI-H226 lung = system: NCI-H226 lung
U251 CNS = system: U251 CNS
A549 NSCLC = system: A549 NSCLC
RPMI-8226 leukemia = system: RPMI-8226 leukemia
BT-549 breast = system: BT-549 breast
OVCAR-3 ovarian = system: OVCAR-3 ovarian
SK-OV-3 ovarian = system: SK-OV-3 ovarian
SW-620 colon = system: SW-620 colon
HS 578T breast = system: HS 578T breast
HT29 colon = system: HT29 colon
MDA-MB-435 = system: MDA-MB-435

Row | Compound | TGI (MDA-MB-231 breast) [µM] | TGI (UACC-257 melanoma) [µM] | TGI (KM12 colon) [µM] | TGI (NCI-H226 lung) [µM] | TGI (U251 CNS) [µM] | TGI (A549 NSCLC) [µM] | TGI (RPMI-8226 leukemia) [µM] | TGI (BT-549 breast) [µM] | TGI (OVCAR-3 ovarian) [µM] | TGI (SK-OV-3 ovarian) [µM] | TGI (SW-620 colon) [µM] | TGI (HS 578T breast) [µM] | TGI (HT29 colon) [µM] | TGI (MDA-MB-435) [µM]
1 | Cc1ccc2c(=O)cc(-c3ccc(C)s3)[nH]c2n1 | > 100 | > 100 | 15.9 | 2.45 | > 55.2 | > 33.8 | 2.57 | > 100 | > 46.8 | > 100 |  |  |  | 
2 | CC(=O)O[C@H]1C(=O)[C@@]2(C)[C@H]([C@H](OC(=O)c3ccccc3)[C@]3(O)C[C@H](OC(=O)[C@H](O)[C@@H](NC(=O)c4ccco4)c4ccccc4)C(C)=C1C3(C)C)[C@]1(OC(C)=O)CO[C@@H]1C[C@@H]2O | > 12.5 |  | > 12.5 |  | > 12.5 | > 12.5 | < 0.00125 |  | 0.00548 | 0.0107 | > 12.5 | 0.00279 | > 12.5 | 
3 | [B-][P+](CC[P+]1([B-])[C@@H](C)[C@@H](O)[C@H](O)[C@@H]1C)(c1ccccc1)c1ccccc1OC (some centres undefined) | 29.5 | 20.3 | 33.1 | 31.8 | 30.6 | 28.8 | 55.4 |  | 31 | 37.6 | 31.9 | 22.6 | 40.6 | 30.4
4 | CN(C)N1C(=O)S/C(=C\c2ccc([N+](=O)[O-])cc2)C1=O | > 100 | > 100 | > 100 | > 100 | > 100 | > 100 |  |  | > 100 | > 100 |  | > 100 | > 100 | > 100
5 | COc1ccc2c(c1)CCCN1CCc3ccccc3C21 (centres undefined) | 72.2 | > 100 | > 100 | 80 | 95.4 | > 100 |  |  | > 100 | > 100 | > 100 | 94 | > 100 | 43.2
6 | CC1=CC[C@@]2(C)CC[C@](O)(C(C)C)C2C(OC(=O)c2ccccc2)C1 (some centres undefined) | 37.6 | 35.1 | 40.3 | 45.3 | 60 | 37.3 | 37.2 |  | 31.8 | 28.8 | 54.4 | 47.9 | 32.7 | 93.2
7 | CSCSCC(CO)NC(=O)/C(C)=C\c1c(C)[nH]c(=O)[nH]c1=O (centres undefined) |  | > 158 | > 250 | > 250 | > 250 | > 250 | > 250 |  | > 250 | > 250 | > 250 |  | > 250 | 
8 | COc1cccc(/C=C2\S/C(=N/Nc3nc(C)c(C)s3)NC2=O)c1O | > 100 | > 100 | > 100 | > 100 | > 100 | > 100 |  | > 100 | > 100 | > 100 | > 100 |  | > 100 | > 100
9 | Cc1cc(=O)oc2cc(OCC(O)COC(C)C)ccc12 (centres undefined) | > 100 | > 100 | > 100 |  | > 100 | > 100 | > 100 |  | > 100 | > 100 | > 100 | > 100 | > 100 | 
10 | CC(C)(Cl)C(Br)CCC(Br)(CCl)C(Cl)CBr (centres undefined) | > 10 | > 10 | > 10 | > 10 | > 10 |  | > 10 |  | > 10 | > 10 | > 10 | > 10 | > 10 | > 10
11 | C=CC1CN(C(=O)OCC)N(C(=O)OCC)C1CCc1ccccc1 (centres undefined) | > 100 | > 100 | > 100 | > 100 | > 100 | > 100 | > 100 |  |  | > 100 |  | > 100 | > 100 | > 100
12 | O=C1NN(Cc2ccccc2)C(=O)N2CCC[C@@H]12 | > 100 | > 100 | > 100 | > 100 |  | > 100 |  |  | > 100 | > 100 | > 100 | > 100 | > 100 | > 100
13 | COc1ccc(-c2c3c(n(C4OC(CO)C(O)C(O)C4O)c(=S)c2C#N)CCCC3)cc1 (centres undefined) | > 100 | > 100 | > 100 | > 100 |  | > 100 |  |  | > 100 | > 100 | > 100 | > 100 | > 100 | > 100
14 | CC(=O)OCC1OC(n2c3c(c(-c4ccc(Cl)cc4)c(C#N)c2=S)CCCC3)C(OC(C)=O)C(OC(C)=O)C1OC(C)=O (centres undefined) | > 100 | > 100 | > 100 | > 100 | > 100 | > 100 |  |  | > 100 | > 100 |  |  | > 100 | > 100
15 | O=C1CC(CC(=O)c2ccc(Br)cc2)C(=O)/C1=C(/O)c1ccc(Br)cc1 (centres undefined) | > 100 | > 100 | > 100 | > 100 | > 100 | > 100 | > 100 |  | > 100 | > 100 | > 100 | > 100 | > 100 | > 100
16 | CCOC(=O)c1c(NC(=S)Nc2ccc(Cl)cc2)sc2c1CCN(C)C2 | > 100 | > 100 | > 100 | > 100 |  | > 100 | > 100 | > 100 | > 100 |  |  | > 100 | > 100 | 
17 | COc1nc(N)c(NC(C)=O)c(=O)n1C |  | > 100 | > 100 |  | > 100 | > 100 | > 100 |  |  |  | > 100 |  | > 100 | 
18 | Fc1ccc2c3c([nH]c2c1)CCN(Cc1ccccc1)C3 | 43.8 | 30.6 | 29 | 39.5 | 37.1 | 45.5 | 77.2 |  |  | 39.5 | 40 | 30.8 | 47.9 | 34.3
19 | CC1CCC2CC(=O)OC([C@@H]3C(=O)O[C@@H](C4=CCCC4)C4C(C)CCC43)C12 (some centres undefined) |  | > 100 | > 100 | > 100 | > 100 | > 100 | > 100 |  | > 100 | > 100 | > 100 |  | > 100 | 
